Assays:
Test in all cases: biochemical
Conditions in all cases: read-out: % inhibition mean (Z'Lyte)
[1] = biological target: MAP2K1 (MEK1) (Homo sapiens, UniProt Q02750)
[2] = biological target: MARK3 (Homo sapiens, UniProt P27448)
[3] = biological target: KIT V559D (Homo sapiens, UniProt P10721, V559D)
[4] = biological target: ITK (Homo sapiens, UniProt Q08881)
[5] = biological target: GRK4 (Homo sapiens, UniProt P32298)
[6] = biological target: PASK (Homo sapiens, UniProt Q96RG2)
[7] = biological target: CLK3 (Homo sapiens, UniProt P49761)
[8] = biological target: PDGFRA V561D (Homo sapiens, UniProt P16234, V561D)
[9] = biological target: MAPK13 (p38 delta) (Homo sapiens, UniProt O15264)
[10] = biological target: ZAP70 (Homo sapiens, UniProt P43403)
ZAP70, sequence (P43403 whole entry): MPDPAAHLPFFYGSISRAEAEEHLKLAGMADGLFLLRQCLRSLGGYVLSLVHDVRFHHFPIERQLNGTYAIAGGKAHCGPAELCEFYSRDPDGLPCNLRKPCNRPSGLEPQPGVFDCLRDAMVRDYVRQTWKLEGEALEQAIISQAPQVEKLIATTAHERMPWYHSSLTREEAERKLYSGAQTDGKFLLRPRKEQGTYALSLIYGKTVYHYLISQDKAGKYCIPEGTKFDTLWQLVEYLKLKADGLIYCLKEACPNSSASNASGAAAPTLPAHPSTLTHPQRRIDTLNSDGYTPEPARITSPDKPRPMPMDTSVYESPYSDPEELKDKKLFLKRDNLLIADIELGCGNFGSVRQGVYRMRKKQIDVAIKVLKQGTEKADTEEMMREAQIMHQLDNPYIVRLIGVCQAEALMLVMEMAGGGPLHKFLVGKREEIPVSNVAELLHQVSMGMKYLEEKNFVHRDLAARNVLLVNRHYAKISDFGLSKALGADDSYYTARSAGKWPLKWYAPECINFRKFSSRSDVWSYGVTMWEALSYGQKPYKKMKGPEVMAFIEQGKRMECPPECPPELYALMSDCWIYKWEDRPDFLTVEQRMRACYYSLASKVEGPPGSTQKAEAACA

[11] = biological target: AURKB (Aurora B) (Homo sapiens, UniProt Q96GD4)
[12] = biological target: MARK1 (MARK) (Homo sapiens, UniProt Q9P0L2)
[13] = biological target: MINK1 (Homo sapiens, UniProt Q8N4C8)
[14] = biological target: ABL1 E255K (Homo sapiens, UniProt P00519, E255K)
[15] = biological target: LYN B (Homo sapiens, UniProt P07948)
[16] = biological target: NTRK3 (TRKC) (Homo sapiens, UniProt Q16288)
NTRK3 (TRKC), sequence (Q16288 whole entry): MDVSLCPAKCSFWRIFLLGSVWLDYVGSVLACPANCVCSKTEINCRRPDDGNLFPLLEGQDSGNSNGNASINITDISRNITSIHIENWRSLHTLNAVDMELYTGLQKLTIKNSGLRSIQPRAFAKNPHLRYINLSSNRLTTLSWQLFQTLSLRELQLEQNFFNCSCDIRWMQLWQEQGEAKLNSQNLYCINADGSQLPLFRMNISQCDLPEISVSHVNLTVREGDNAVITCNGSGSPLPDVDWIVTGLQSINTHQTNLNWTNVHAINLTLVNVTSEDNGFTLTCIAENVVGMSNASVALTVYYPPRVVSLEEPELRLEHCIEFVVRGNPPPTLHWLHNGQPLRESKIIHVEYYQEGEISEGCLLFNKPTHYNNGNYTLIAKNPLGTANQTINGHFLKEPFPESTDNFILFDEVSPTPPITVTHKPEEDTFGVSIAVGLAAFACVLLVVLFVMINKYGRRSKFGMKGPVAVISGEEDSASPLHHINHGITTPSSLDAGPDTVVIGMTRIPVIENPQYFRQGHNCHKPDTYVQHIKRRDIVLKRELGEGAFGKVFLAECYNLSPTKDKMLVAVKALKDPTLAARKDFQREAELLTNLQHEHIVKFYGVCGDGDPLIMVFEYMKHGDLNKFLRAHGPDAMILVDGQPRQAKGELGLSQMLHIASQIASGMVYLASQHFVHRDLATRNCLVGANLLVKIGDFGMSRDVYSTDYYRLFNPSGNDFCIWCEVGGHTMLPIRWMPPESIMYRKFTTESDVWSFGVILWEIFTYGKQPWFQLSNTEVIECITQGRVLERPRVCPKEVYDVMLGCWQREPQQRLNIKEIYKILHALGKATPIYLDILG

[17] = biological target: FLT1 (VEGFR1) (Homo sapiens, UniProt P17948)
[18] = biological target: PRKACA (PKA) (Homo sapiens, UniProt P17612)
[19] = biological target: CSK (Homo sapiens, UniProt P41240)
CSK, sequence (P41240 whole entry): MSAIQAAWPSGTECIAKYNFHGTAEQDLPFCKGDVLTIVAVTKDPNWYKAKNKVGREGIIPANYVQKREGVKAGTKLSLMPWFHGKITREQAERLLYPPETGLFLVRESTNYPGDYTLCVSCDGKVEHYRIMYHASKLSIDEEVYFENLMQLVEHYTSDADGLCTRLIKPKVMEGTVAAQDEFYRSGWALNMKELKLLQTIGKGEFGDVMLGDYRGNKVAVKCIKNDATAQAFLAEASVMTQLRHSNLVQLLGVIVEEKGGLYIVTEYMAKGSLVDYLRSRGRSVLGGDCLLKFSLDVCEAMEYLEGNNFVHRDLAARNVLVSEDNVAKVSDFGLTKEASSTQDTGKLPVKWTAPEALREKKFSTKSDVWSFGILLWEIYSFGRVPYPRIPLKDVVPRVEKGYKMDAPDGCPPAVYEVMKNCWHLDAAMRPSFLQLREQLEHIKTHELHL

[20] = biological target: FRAP1 (mTOR) (Homo sapiens, UniProt P42345)
[21] = biological target: ABL1 G250E (Homo sapiens, UniProt P00519, G250E)
[22] = biological target: MAPKAPK2 (Homo sapiens, UniProt P49137)
MAPKAPK2, sequence (P49137 whole entry): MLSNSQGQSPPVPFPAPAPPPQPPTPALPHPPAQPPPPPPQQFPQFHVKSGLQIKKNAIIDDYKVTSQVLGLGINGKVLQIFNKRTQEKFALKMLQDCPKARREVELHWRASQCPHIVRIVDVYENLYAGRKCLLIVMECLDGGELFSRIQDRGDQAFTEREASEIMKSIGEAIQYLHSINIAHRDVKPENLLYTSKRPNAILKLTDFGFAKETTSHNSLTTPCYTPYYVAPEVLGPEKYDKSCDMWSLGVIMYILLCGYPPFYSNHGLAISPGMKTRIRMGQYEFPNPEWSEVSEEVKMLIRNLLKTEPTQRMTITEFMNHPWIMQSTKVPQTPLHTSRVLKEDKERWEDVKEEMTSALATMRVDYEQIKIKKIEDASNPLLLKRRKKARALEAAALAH

[23] = biological target: PAK2 (PAK65) (Homo sapiens, UniProt Q13177)
[24] = biological target: SRPK2 (Homo sapiens, UniProt P78362)
[25] = biological target: SGK (SGK1) (Homo sapiens, UniProt O00141)
SGK (SGK1), sequence (O00141 whole entry): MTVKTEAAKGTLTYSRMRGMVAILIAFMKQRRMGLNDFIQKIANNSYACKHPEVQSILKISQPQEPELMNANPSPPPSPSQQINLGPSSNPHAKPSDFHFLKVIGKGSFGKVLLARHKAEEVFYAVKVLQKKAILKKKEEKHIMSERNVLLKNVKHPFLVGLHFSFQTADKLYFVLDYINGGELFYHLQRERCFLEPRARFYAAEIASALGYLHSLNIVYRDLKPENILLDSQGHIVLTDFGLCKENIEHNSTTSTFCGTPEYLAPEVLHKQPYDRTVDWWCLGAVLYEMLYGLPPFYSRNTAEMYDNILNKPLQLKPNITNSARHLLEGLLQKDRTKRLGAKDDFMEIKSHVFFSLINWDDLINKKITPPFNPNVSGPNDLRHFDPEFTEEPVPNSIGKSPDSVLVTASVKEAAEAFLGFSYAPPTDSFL

[26] = biological target: PRKG2 (PKG2) (Homo sapiens, UniProt Q13237)
[27] = biological target: PLK1 (Homo sapiens, UniProt P53350)
[28] = biological target: AKT1 (PKB alpha) (Homo sapiens, UniProt P31749)
[29] = biological target: PDGFRA D842V (Homo sapiens, UniProt P16234, D842V)

MARK3, sequence (P27448 whole entry): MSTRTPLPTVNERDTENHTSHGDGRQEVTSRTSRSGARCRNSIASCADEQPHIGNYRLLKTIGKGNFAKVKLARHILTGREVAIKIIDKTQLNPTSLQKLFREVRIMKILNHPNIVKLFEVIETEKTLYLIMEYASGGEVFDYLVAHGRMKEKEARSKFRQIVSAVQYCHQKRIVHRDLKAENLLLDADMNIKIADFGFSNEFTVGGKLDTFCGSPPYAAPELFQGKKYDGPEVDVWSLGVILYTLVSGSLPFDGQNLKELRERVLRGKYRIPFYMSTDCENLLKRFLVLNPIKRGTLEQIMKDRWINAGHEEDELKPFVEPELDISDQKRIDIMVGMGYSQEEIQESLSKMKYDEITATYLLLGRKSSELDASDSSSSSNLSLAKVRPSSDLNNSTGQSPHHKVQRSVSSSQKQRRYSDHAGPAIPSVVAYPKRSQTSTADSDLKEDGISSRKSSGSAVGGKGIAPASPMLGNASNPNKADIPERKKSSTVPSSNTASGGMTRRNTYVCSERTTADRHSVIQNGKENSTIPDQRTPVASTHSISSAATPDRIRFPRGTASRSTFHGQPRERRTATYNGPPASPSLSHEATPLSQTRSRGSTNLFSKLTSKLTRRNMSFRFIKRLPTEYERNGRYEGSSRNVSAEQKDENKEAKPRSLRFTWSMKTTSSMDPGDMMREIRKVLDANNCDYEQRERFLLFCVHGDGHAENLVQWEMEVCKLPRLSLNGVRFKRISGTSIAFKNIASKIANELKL
PASK, sequence (Q96RG2 whole entry): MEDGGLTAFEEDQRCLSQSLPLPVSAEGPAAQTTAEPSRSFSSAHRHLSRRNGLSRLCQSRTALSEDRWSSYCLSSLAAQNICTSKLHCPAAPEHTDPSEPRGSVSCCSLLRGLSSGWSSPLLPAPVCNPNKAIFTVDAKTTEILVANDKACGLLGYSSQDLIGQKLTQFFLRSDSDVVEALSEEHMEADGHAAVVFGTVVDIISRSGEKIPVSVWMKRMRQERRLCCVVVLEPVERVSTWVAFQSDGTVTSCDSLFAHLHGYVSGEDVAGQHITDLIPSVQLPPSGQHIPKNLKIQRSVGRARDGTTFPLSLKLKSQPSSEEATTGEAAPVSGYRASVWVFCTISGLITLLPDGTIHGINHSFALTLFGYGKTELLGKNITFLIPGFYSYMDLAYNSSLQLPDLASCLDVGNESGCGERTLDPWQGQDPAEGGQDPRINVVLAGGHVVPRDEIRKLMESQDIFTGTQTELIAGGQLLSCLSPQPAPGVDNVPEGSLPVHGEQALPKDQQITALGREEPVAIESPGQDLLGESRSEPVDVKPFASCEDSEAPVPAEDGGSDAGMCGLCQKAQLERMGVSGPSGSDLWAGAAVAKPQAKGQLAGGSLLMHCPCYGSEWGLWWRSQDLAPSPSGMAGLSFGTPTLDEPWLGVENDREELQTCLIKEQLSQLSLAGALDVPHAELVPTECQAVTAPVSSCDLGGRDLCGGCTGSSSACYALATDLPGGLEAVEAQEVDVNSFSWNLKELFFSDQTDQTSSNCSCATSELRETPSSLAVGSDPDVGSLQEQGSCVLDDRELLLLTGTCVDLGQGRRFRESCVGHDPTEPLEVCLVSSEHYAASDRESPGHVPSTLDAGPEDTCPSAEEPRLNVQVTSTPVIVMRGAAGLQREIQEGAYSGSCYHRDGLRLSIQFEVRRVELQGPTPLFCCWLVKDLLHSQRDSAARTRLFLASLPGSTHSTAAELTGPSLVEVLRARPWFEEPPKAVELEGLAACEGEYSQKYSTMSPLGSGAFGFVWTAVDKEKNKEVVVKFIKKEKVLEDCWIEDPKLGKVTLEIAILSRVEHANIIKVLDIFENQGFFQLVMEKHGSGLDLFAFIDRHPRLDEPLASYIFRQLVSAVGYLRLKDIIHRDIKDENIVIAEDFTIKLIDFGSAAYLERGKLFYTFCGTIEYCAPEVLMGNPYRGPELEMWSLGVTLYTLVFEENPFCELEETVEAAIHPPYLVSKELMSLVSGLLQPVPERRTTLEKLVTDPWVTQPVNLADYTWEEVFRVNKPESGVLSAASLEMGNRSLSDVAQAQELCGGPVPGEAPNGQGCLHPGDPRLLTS

`COc1ccc2nc3cc(Cl)ccc3c(Nc3cc(CN4CCCC4)c(O)c(CN4CCCC4)c3)c2n1` [Pyronaridine, 4-[(7-Chloro-2-methoxybenzo[b][1,5]naphthyridin-10-yl)amino]-2,6-bis(1-pyrrolidinylmethyl)phenol phosphate (1:4)] was tested, and the inhibition at 1 µM [1] was -2%, the inhibition at 1 µM [2] was 2% and the inhibition at 1 µM [3] was -1%. For the same compound, the inhibition at 1 µM [4] was 2%, the inhibition at 1 µM [5] was 25% and the inhibition at 1 µM [6] was -4%. The inhibition at 1 µM [7] was -3%, the inhibition at 1 µM [8] was 2% and the inhibition at 1 µM [9] was 5%. It also gave an inhibition at 1 µM [10] of 4%, an inhibition at 1 µM [11] of 5% and an inhibition at 1 µM [12] of -10%. The inhibition at 1 µM [13] was 7%, the inhibition at 1 µM [14] was 7% and the inhibition at 1 µM [15] was -2%. It also gave an inhibition at 1 µM [16] of 2%, an inhibition at 1 µM [17] of -6% and an inhibition at 1 µM [18] of 1%. The inhibition at 1 µM [19] was -3%, the inhibition at 1 µM [20] was 1% and the inhibition at 1 µM [21] was 1%. The inhibition at 1 µM [22] was 10%, the inhibition at 1 µM [23] was -1% and the inhibition at 1 µM [24] was -4%. The inhibition at 1 µM [25] was 4%, the inhibition at 1 µM [26] was 1% and the inhibition at 1 µM [27] was 6%. The inhibition at 1 µM [28] was 4% and the inhibition at 1 µM [29] was -1%.

From publication doi:10.1101/2021.09.30.462449v1 (biorxiv, 2021)
